According to ChEMBL document CHEMBL1201862, “PubChem BioAssay data set” (2004):
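1) Cells in 96-well plates. 2) Compound, 48 h, 5 concentrations. 3) Linear interpolation between surrounding doses. 4) Unreached endpoint = highest concentration. At the GI50, growth is halved.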 Calls of active or inactive are those of the source. Rule as the data show it: active = GI50 up to about 1.1 µM and inactive = higher.

Columns and labels:
Experiment in all cases: NCI anticancer screen, dose series, 48 h
OVCAR-5 = tested on: OVCAR-5
SF-268 = tested on: SF-268
LOX IMVI = tested on: LOX IMVI
SN12C = tested on: SN12C
SK-OV-3 = tested on: SK-OV-3
UACC-257 = tested on: UACC-257
CCRF-CEM = tested on: CCRF-CEM
NCI-H226 = tested on: NCI-H226
EKVX = tested on: EKVX
HT-29 = tested on: HT-29
SR = tested on: SR
NCI-H522 = tested on: NCI-H522
U-251 = tested on: U-251
OVCAR-3 = tested on: OVCAR-3
HOP-62 = tested on: HOP-62
M14 = tested on: M14
HOP-92 = tested on: HOP-92
RPMI-8226 = tested on: RPMI-8226

Measured: GI50

c1ccc2cc3[s+]snc3cc2c1
inactive: OVCAR-5 > 100 µM | SF-268 > 100 µM | LOX IMVI > 100 µM | SN12C > 100 µM | SK-OV-3 > 100 µM | UACC-257 > 100 µM | CCRF-CEM 89.7 µM | NCI-H226 > 100 µM | EKVX > 100 µM | HT-29 > 100 µM | SR > 100 µM | NCI-H522 > 100 µM | U-251 85.9 µM | OVCAR-3 > 100 µM | HOP-62 > 100 µM | M14 > 100 µM

N=C(N)/N=C(\N)Nc1cnccn1
inactive: LOX IMVI > 100 µM | SN12C > 100 µM | SK-OV-3 > 100 µM | UACC-257 > 100 µM | CCRF-CEM > 100 µM | NCI-H226 > 100 µM | EKVX > 100 µM | HT-29 > 100 µM | NCI-H522 > 100 µM | U-251 > 100 µM | OVCAR-3 > 100 µM | HOP-62 > 100 µM | M14 > 100 µM | HOP-92 > 100 µM

O=C(Nc1ccccc1C(=O)O)C(=O)C(C(=O)c1ccccc1-c1ccccc1)C1OC(=O)c2ccccc21 (centres undefined)
inactive: OVCAR-5 23.6 µM | SF-268 16.8 µM | LOX IMVI 18.7 µM | SN12C 17.1 µM | SK-OV-3 30.9 µM | UACC-257 16.7 µM | CCRF-CEM 22.1 µM | NCI-H226 12.5 µM | EKVX 23.4 µM | HT-29 29.7 µM | RPMI-8226 25.2 µM | SR 18.3 µM | NCI-H522 16.2 µM | U-251 15.4 µM | OVCAR-3 16.6 µM | HOP-62 18 µM | M14 17.1 µM

CC(N)Cc1ccc(C(=O)Cl)cc1 (centres undefined)
inactive: SF-268 > 100 µM | LOX IMVI > 100 µM | SN12C > 100 µM | SK-OV-3 > 100 µM | UACC-257 > 100 µM | CCRF-CEM > 100 µM | EKVX > 100 µM | HT-29 > 100 µM | RPMI-8226 > 100 µM | NCI-H522 > 100 µM | U-251 > 100 µM | OVCAR-3 > 100 µM | HOP-62 > 100 µM | M14 > 100 µM

OCCc1cnco1
inactive: SF-268 > 100 µM | LOX IMVI > 100 µM | SN12C > 100 µM | SK-OV-3 > 100 µM | CCRF-CEM > 100 µM | NCI-H226 > 100 µM | EKVX > 100 µM | HT-29 > 100 µM | RPMI-8226 > 100 µM | NCI-H522 > 100 µM | U-251 > 100 µM | OVCAR-3 > 100 µM | HOP-62 > 100 µM | M14 > 100 µM

CC(C)(C)c1ccnc(/N=C2\N/C(=N\c3cc(C(C)(C)C)ccn3)c3ccccc32)c1
inactive: OVCAR-5 > 100 µM | SF-268 16.3 µM | LOX IMVI 35.9 µM | SN12C > 100 µM | SK-OV-3 26.5 µM | UACC-257 23 µM | CCRF-CEM 59.4 µM | NCI-H226 > 100 µM | EKVX 57.9 µM | HT-29 12.4 µM | SR 31.4 µM | NCI-H522 21.6 µM | U-251 26.1 µM | OVCAR-3 17.8 µM | HOP-62 31.6 µM | M14 32.5 µM | HOP-92 22.6 µM

O=C(O)CNc1c2ccccc2[n+]([O-])c2ccccc12
inactive: OVCAR-5 > 100 µM | SF-268 > 100 µM | LOX IMVI 78.7 µM | SN12C > 100 µM | SK-OV-3 > 100 µM | UACC-257 > 100 µM | CCRF-CEM 21.2 µM | NCI-H226 > 100 µM | EKVX > 100 µM | HT-29 > 100 µM | RPMI-8226 31.8 µM | NCI-H522 50.1 µM | U-251 > 100 µM | OVCAR-3 > 100 µM | HOP-62 > 100 µM | M14 > 100 µM

N#C/N=C(/N)c1sc2nc3c(c(-c4ccc(Br)cc4)c2c1N)CCCC3
inactive: OVCAR-5 34.3 µM | SF-268 35 µM | LOX IMVI 7.93 µM | SN12C 21.5 µM | SK-OV-3 28.1 µM | UACC-257 28.5 µM | CCRF-CEM 9.84 µM | NCI-H226 15.9 µM | HT-29 18.5 µM | RPMI-8226 17.1 µM | SR 2.64 µM | U-251 24.2 µM | M14 21.8 µM | HOP-92 21 µM

N#C/C(=C\c1ccccc1O)C(N)=O
inactive: OVCAR-5 > 100 µM | SF-268 81.7 µM | LOX IMVI > 100 µM | SN12C > 100 µM | SK-OV-3 53.1 µM | UACC-257 50.7 µM | CCRF-CEM 23.6 µM | NCI-H226 46.8 µM | EKVX 59.4 µM | HT-29 86.9 µM | RPMI-8226 60.8 µM | NCI-H522 21.9 µM | U-251 > 100 µM | OVCAR-3 48.5 µM | HOP-62 > 100 µM | M14 > 100 µM | HOP-92 32.3 µM

CCOC(=O)N1C(c2ccccc2)C=CC(c2ccccc2)N1C(=O)OCC (centres undefined)
inactive: OVCAR-5 > 100 µM | SF-268 > 100 µM | LOX IMVI > 100 µM | SN12C > 100 µM | UACC-257 > 100 µM | CCRF-CEM > 100 µM | EKVX > 100 µM | HT-29 > 100 µM | RPMI-8226 > 100 µM | SR > 100 µM | U-251 > 100 µM | OVCAR-3 > 100 µM | HOP-62 > 100 µM | HOP-92 > 100 µM

COC1OC(CO)C(O)C(NC(=O)N(C)N=O)C1O (centres undefined)
inactive: SF-268 > 100 µM | SN12C > 100 µM | SK-OV-3 > 100 µM | CCRF-CEM > 100 µM | NCI-H226 > 100 µM | EKVX > 100 µM | HT-29 > 100 µM | RPMI-8226 > 100 µM | SR > 100 µM | NCI-H522 > 100 µM | U-251 > 100 µM | OVCAR-3 > 100 µM | M14 > 100 µM | HOP-92 > 100 µM

Nc1ccn(CCOC(=O)c2ccccc2)c(=O)n1
inactive: OVCAR-5 > 100 µM | SF-268 > 100 µM | LOX IMVI > 100 µM | SN12C > 100 µM | SK-OV-3 > 100 µM | UACC-257 > 100 µM | CCRF-CEM > 100 µM | NCI-H226 > 100 µM | EKVX > 100 µM | HT-29 > 100 µM | RPMI-8226 > 100 µM | NCI-H522 > 100 µM | U-251 > 100 µM | OVCAR-3 > 100 µM | HOP-62 > 100 µM | M14 > 100 µM | HOP-92 > 100 µM

COC(=O)Cc1cc(=O)n2c3ccccc3n(C)c2c1C#N
inactive: OVCAR-5 > 100 µM | SF-268 > 100 µM | LOX IMVI > 100 µM | SN12C > 100 µM | SK-OV-3 > 100 µM | UACC-257 > 100 µM | NCI-H226 > 100 µM | EKVX > 100 µM | HT-29 > 100 µM | RPMI-8226 > 100 µM | SR > 100 µM | U-251 > 100 µM | OVCAR-3 > 100 µM | HOP-62 > 100 µM | M14 > 100 µM
